The test system of experiment [1] is bacterial strains that express KPC β-lactamases. As to the kind of experiment: Synergy MIC / standard BLI potentiation MIC assay, strains expressing KPC β-lactamases. The following applies: for at least one KPC strain and/or a better spectrum of activity against KPC strains than Avibactam; in the presence of a β-lactam. The format is cell-based. The method, then:
Unless otherwise indicated, the activity of the BLI compounds can be described by the MIC value obtained from a Synergy MIC assay or a BLI potentiation assay (e.g as described herein), both of which are run in the presence of a β-lactam.
The experimental protocol was performed according to Clinical and Laboratory Standards Institute (CLSI) guidelines with modifications as described below (CLSI guidelines can be derived from the CLSI document M07-A9 published in January 2012: “Methods for Dilution Antimicrobial Susceptibility Tests for Bacteria That Grow Aerobically; Approved Standard-Ninth Edition”).
To prepare for MIC testing, frozen glycerol stocks of clinical isolates (Klebsiella pneumoniae, Eschericia coli, Enterobacter spp, Citrobacter spp, or Pseudomonas aeruginosa) were used to streak for isolated colonies on rich, non-selective, tryptic soy agar containing 5% sheep's blood (TSAB). Frozen glycerol stocks of laboratory engineered, isogenic E. coli strains, which contain cloned β-lactamase expressing plasmids were used to streak for isolated colonies on rich, selective LB agar supplemented with 25 μg/mL tetracycline to maintain the plasmid. All strains were incubated at 37° C. for 18-24 hrs.
On the day of testing, primary cultures were started by scraping off 5-10 colonies from the TSAB plates containing clinical strains or the tetracycline supplemented LB plates containing engineered strains. The clinical strain material was suspended in ˜5 mL of cation adjusted Mueller Hinton Broth (CAMHB) in 14 mL culture tubes. The engineered strain material was suspended in CAMHB (supplemented with 25 μg/mL tetracycline) in 14 mL culture tubes. All strains were incubated at 37° C. with aeration (200 rpm) for ˜2 hrs until the optical density at 600 nm (OD600) was ≧0.1.
The two compound components of the assay were each diluted in CAMHB and added to the 96-well broth microdilution assay plates. 50 μL of the β-lactam was added to each well of the assay plate in 2-fold dilutions with final concentrations ranging from 128 to 0.13 μg/mL. 25 μL of the BLI compound was added to all wells in the broth microdilution plates at a final concentration of 4 μg/mL. Inoculum cultures were prepared by standardizing the primary cultures to OD600=0.1 and then adding 20 μL of the adjusted primary culture per 1 mL CAMHB for clinical strains or CAMHB (supplemented with tetracycline at 100 μg/mL) for engineered strains, so that the final inoculum density was ˜10^5 colony forming units per milliliter. Diluted inoculum cultures were used to inoculate 25 μl, per well in 96-well broth microdilution assay plates. The final volume of each well was 100 μL and contained a β-lactam at different concentrations, a BLIcompound at 4 μg/mL concentration, the bacterial culture at an OD600 of approximately 0.001 and when necessary tetracycline at 25 μg/mL.
Plates were incubated for 18-20 hours at 37° C. with aeration (200 rpm). Following incubation, growth was confirmed visually placing plates over a viewing apparatus (stand with a mirror underneath) and then OD600 was measured using a SpectraMax 340PC384 plate reader (Molecular Devices, Sunnyvale, Calif.). Growth was defined as turbidity that could be detected with the naked eye or achieving minimum OD600 of 0.1. MIC values were defined as the lowest concentration producing no visible turbidity.
The synergy MIC (sMIC) assay determines the concentration of the BLI required to potentiate the activity of a fixed concentration of a β-lactam antibiotic against β-lactamase producing bacterial strains. The experimental protocol was performed according to Clinical and Laboratory Standards Institute (CLSI) guidelines with modifications as described below (CLSI guidelines can be derived from the CLSI document M07-A9 published in January 2012: “Methods for Dilution Antimicrobial Susceptibility Tests for Bacteria That Grow Aerobically; Approved Standard-Ninth Edition”). […]

Experiment [2] relates to bacterial strains that express the class D cephalosporinase OXA-15. Nature of the experiment: Synergy MIC / standard BLI potentiation MIC assay, strains expressing OXA-15.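 Also: more active means a lower MIC or sMIC than Avibactam.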 The format is cell-based, E. coli. The following applies: in the presence of a β-lactam; comparator Avibactam (CCC). The method, boiled down:
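CLSI broth microdilution in CAMHB, ~10^5 CFU/mL, 18–20 h at 37 °C with aeration; engineered E. coli kept on 25 μg/mL tetracycline. Potentiation: β-lactam 128–0.13 μg/mL with BLI fixed at 4 μg/mL; synergy MIC: BLI serially diluted with fixed β-lactam. MIC is the lowest concentration without visible turbidity.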

Where a name gives a salt, the structure may show the parent alone.

Take `N=C(N)N1CC(c2nnc([C@@H]3CC[C@@H]4CN3C(=O)N4OS(=O)(=O)O)o2)C1` [Compound 709, (2S,5R)-2-(5-(1-carbamimidoylazetidin-3-yl)-1,3,4-oxadiazol-2-yl)-7-oxo-1,6-diazabicyclo[3.2.1]octan-6-yl hydrogen sulfate]: the “activity against bacterial strains that express KPC β-lactamase compared with Avibactam” value in experiment [1] is recorded as “more active than Avibactam”. The “activity against bacterial strains that express OXA-15 β-lactamase compared with Avibactam” value in experiment [2] is given as “more active than Avibactam”.
Turning to `O=C1N2C[C@@H](CC[C@H]2c2nnco2)N1OS(=O)(=O)O` [Compound 701, (2S,5R)-2-(1,3,4-oxadiazol-2-yl)-7-oxo-1,6-diazabicyclo[3.2.1]octan-6-yl hydrogen sulfate], the “activity against bacterial strains that express KPC β-lactamase compared with Avibactam” value in experiment [1] is “more active than Avibactam”. Further, in experiment [2], the “activity against bacterial strains that express OXA-15 β-lactamase compared with Avibactam” value is given as “more active than Avibactam”.
For `O=C1N2C[C@@H](CC[C@H]2c2nnc(CNC3CNC3)o2)N1OS(=O)(=O)O` [Compound 726, (2S,5R)-2-(5-((azetidin-3-ylamino)methyl)-1,3,4-oxadiazol-2-yl)-7-oxo-1,6-diazabicyclo[3.2.1]octan-6-yl hydrogen sulfate], the “activity against bacterial strains that express KPC β-lactamase compared with Avibactam” value in experiment [1] is “more active than Avibactam”. Also, the “activity against bacterial strains that express OXA-15 β-lactamase compared with Avibactam” value in experiment [2] is listed as “more active than Avibactam”.
As to `N=C(N)NCCc1nnc([C@@H]2CC[C@@H]3CN2C(=O)N3OS(=O)(=O)O)s1` [Compound 794, (2S,5R)-2-(5-(2-guanidinoethyl)-1,3,4-thiadiazol-2-yl)-7-oxo-1,6-diazabicyclo[3.2.1]octan-6-yl hydrogen sulfate], the “activity against bacterial strains that express KPC β-lactamase compared with Avibactam” value in experiment [1] is “more active than Avibactam”. In addition, the “activity against bacterial strains that express OXA-15 β-lactamase compared with Avibactam” value in experiment [2] was “more active than Avibactam”.
`N=C(N)NC[C@@H](O)c1nnc([C@@H]2CC[C@@H]3CN2C(=O)N3OS(=O)(=O)O)o1` [Compound 731, (2S,5R)-2-(5-((R)-2-guanidino-1-hydroxyethyl)-1,3,4-oxadiazol-2-yl)-7-oxo-1,6-diazabicyclo[3.2.1]octan-6-yl hydrogen sulfate]: the “activity against bacterial strains that express KPC β-lactamase compared with Avibactam” value in experiment [1] was “more active than Avibactam”. Further, the “activity against bacterial strains that express OXA-15 β-lactamase compared with Avibactam” value in experiment [2] is on record as “more active than Avibactam”.
On to `N=C(N)N1CC(Cc2nnc([C@@H]3CC[C@@H]4CN3C(=O)N4OS(=O)(=O)O)o2)C1` [Compound 741, (2S,5R)-2-(5-((1-carbamimidoylazetidin-3-yl)methyl)-1,3,4-oxadiazol-2-yl)-7-oxo-1,6-diazabicyclo[3.2.1]octan-6-yl hydrogen sulfate], for which the “activity against bacterial strains that express KPC β-lactamase compared with Avibactam” value in experiment [1] is listed as “more active than Avibactam”. Moreover, the “activity against bacterial strains that express OXA-15 β-lactamase compared with Avibactam” value in experiment [2] is listed as “more active than Avibactam”.
For `N[C@H]1C[C@H](Cc2nnc([C@@H]3CC[C@@H]4CN3C(=O)N4OS(=O)(=O)O)o2)C1` [Compound 751, (2S,5R)-2-(5-(((1r,3S)-3-aminocyclobutyl)methyl)-1,3,4-oxadiazol-2-yl)-7-oxo-1,6-diazabicyclo[3.2.1]octan-6-yl hydrogen sulfate], the “activity against bacterial strains that express KPC β-lactamase compared with Avibactam” value in experiment [1] is “more active than Avibactam”. Moreover, the “activity against bacterial strains that express OXA-15 β-lactamase compared with Avibactam” value in experiment [2] was “more active than Avibactam”.
For the compound `O=C1N2C[C@@H](CC[C@H]2c2nnc(C3CCNC3)o2)N1OS(=O)(=O)O` (stereo partly drawn) [Compound 710, (2S,5R)-7-oxo-2-(5-(pyrrolidin-3-yl)-1,3,4-oxadiazol-2-yl)-1,6-diazabicyclo[3.2.1]octan-6-yl hydrogen sulfate], the “activity against bacterial strains that express KPC β-lactamase compared with Avibactam” value in experiment [1] is recorded as “more active than Avibactam”. Also, the “activity against bacterial strains that express OXA-15 β-lactamase compared with Avibactam” value in experiment [2] was “more active than Avibactam”.

Source of the values: patent US8940897B2, “1,3,4-oxadiazole and 1,3,4-thiadiazole β-lactamase inhibitors” (priority 2012, dated 2015).
